Test results reported in article PMC9668969 (Nature Communications, 2022).
Several values for one entry are separate records, joined by “and”; a condition that tells them apart may be missing. Equal entries are not always repeated. Where two headings read alike, the source gives them in different places.

Test system: WT ELIC
Experiment: Fluorescence stopped-flow liposomal Tl+ flux assay, symmetric liposomes
Type: biochemical, Erwinia chrysanthemi
Design: Tl+ flux quenching rate, Avg. / Tl+ flux quenching rate: unit not given here
Conditions: for time constant of activation by Tl+ flux: 10 mM propylamine; for EC50: read-out: EC50 of peak Tl+ flux rate; for Rate (stopped-flow fluorescence quenching rate) / Avg (stopped-flow fluorescence quenching rate): WT in 2:1:1 PC:PE:PG liposomes; for Rate (stopped-flow fluorescence quenching rate): single experiments; for Avg (stopped-flow fluorescence quenching rate): average of experiments
Experimental: The fluorescence sequential-mixing stopped-flow liposomal flux measurements were carried using an SX20 stopped-flow spectrofluorometer (Applied Photophysics) and Pro-Data SX software[13],[30]. 7.5 mg of the respective lipid mixture (POPC, 1:1 POPC: POPE, 1:1 POPC:POPG, 3:1 POPC:POPE, 3:1 POPC:POPG, 2:1:1 POPC:POPE:POPG) was dried in a glass vial to a thin film under a constant stream of N2. The lipids were then further dried under vacuum in a desiccator overnight. The following day the lipids were hydrated in 500 µl of reconstitution buffer (100 mM NaNO3, 10 mM HEPES, pH 7) (Buffer R), 250 µl of 75 mM 8-Aminonaphthalene-1,3,6-Trisulfonic Acid (ANTS, ThermoFisher Scientific) in buffer R, and doped with ~18 mg of CHAPS (Anatrace). The mixture was vortexed and then sonicated with heat until completely solubilized. Following the sonication, the solution was brought to RT then 3.5 µl of 6.7 mg/ml ELIC in Buffer A with 0.02% DDM was added (3 µg per mg of lipid). This combined solution was incubated at RT for 30 min, followed by the addition of 1 ml of 1:1 v/v SM-2 BioBeads in Buffer R and an additional 250 µl of 75 mM ANTS in Buffer R. This mixture was incubated at RT for 2.5 hr with gentle mixing. The liposome suspension was then extruded with an Avanti mini-extruder and 0.1 µm membrane (30×). The extruded liposomes were stored at 13 °C overnight with gentle rotation. The next day, the liposomes were diluted to 2.5 mL using assay buffer (140 mM NaNO3, 10 mM HEPES, pH 7) (Stopped-flow Buffer A), loaded into a PD-10 desalting column (Cytiva), eluted with 3 mL of Stopped-flow Buffer A and subsequently diluted 5-fold with Stopped-flow Buffer A.
Using propylamine as the agonist, the assay and analysis was carried out as previously described[13],[30]. ELIC-containing liposomes were first mixed 1:1 with Buffer A containing 2× the concentration of propylamine. After a variable delay of 10 ms to 25 s, the sample was then mixed 1:1 with a quenching buffer (90 mM NaNO3, 50 mM TlNO3, 10 mM HEPES, pH 7), and ANTS fluorescence (ex. 360 nm, fluorescence above 420 nm) was recorded for 1 s. For each delay time, 5 repeat measurements were obtained. The data were collected using Applied Photophysics Pro-Data SX software. The fluorescence quenching traces were fit to a stretched exponential (Eq. 2a) and the rate of Tl^+ influx was determined at 2 ms (Eq. 2b).2a Ft=F∞+F0−F∞⋅e^−t/τ^β 2b kt=β/τ⋅2ms/τ^(β−1) where Ft, F∞, F0 are the fluorescence at time t, final fluorescence and initial fluorescence. τ is the time constant, β the stretched exponential factor, and kt the calculated rate of Tl^+ influx at 2 ms. The time course of desensitization was also fit to a double exponential and a weighted time constant was calculated as was done for the patch-clamp data using Origin 2019b. All replicates were taken from independent samples.

## CCCN [propylamine]
2:1:1 liposomes
  time constant of activation by Tl+ flux: 41 ± 34 ms
  Hill n of peak Tl+ flux dose response: 2.2 ± 0.7
POPC liposomes
  time constant of activation by Tl+ flux: 20 ± 6 ms
  Hill n of peak Tl+ flux dose response: 3.6 ± 0.6
2:1:1 POPC:POPE:POPG liposomes, no BaCl2, Hill fit
  EC50: 2400 µM and ~2000 µM
POPC liposomes, Hill fit
  EC50: 4300 ± 1400 µM
WT 1:1 PC:PE 10 mM PA, delay 0.01 s
  Tl+ flux quenching rate, Avg.: 12.8731
WT 1:1 PC:PE 10 mM PA, delay 0.025 s
  Tl+ flux quenching rate, Avg.: 18.7932
WT 1:1 PC:PE 10 mM PA, delay 0.05 s
  Tl+ flux quenching rate, Avg.: 16.1105
WT 1:1 PC:PE 10 mM PA, delay 0.1 s
  Tl+ flux quenching rate, Avg.: 21.9541
WT 1:1 PC:PE 10 mM PA, delay 0.25 s
  Tl+ flux quenching rate, Avg.: 19.0107
WT 1:1 PC:PE 10 mM PA, delay 0.5 s
  Tl+ flux quenching rate, Avg.: 18.8714
WT 1:1 PC:PE 10 mM PA, delay 1 s
  Tl+ flux quenching rate, Avg.: 13.7475
WT 1:1 PC:PE 10 mM PA, delay 2.5 s
  Tl+ flux quenching rate, Avg.: 11.8878
WT 1:1 PC:PE 10 mM PA, delay 5 s
  Tl+ flux quenching rate, Avg.: 9.713
WT 1:1 PC:PE 10 mM PA, delay 10 s
  Tl+ flux quenching rate, Avg.: 6.252
WT 1:1 PC:PE 10 mM PA, delay 25 s
  Tl+ flux quenching rate, Avg.: 0.8964
WT 1:1 PC:PG 10 mM PA, delay 0.01 s
  Tl+ flux quenching rate, Avg.: 3.795
WT 1:1 PC:PG 10 mM PA, delay 0.025 s
  Tl+ flux quenching rate, Avg.: 9.924
WT 1:1 PC:PG 10 mM PA, delay 0.05 s
  Tl+ flux quenching rate, Avg.: 11.1292
WT 1:1 PC:PG 10 mM PA, delay 0.1 s
  Tl+ flux quenching rate, Avg.: 12.6513
WT 1:1 PC:PG 10 mM PA, delay 0.25 s
  Tl+ flux quenching rate, Avg.: 13.2242
WT 1:1 PC:PG 10 mM PA, delay 0.5 s
  Tl+ flux quenching rate, Avg.: 14.1908
WT 1:1 PC:PG 10 mM PA, delay 1 s
  Tl+ flux quenching rate, Avg.: 14.7233
WT 1:1 PC:PG 10 mM PA, delay 2.5 s
  Tl+ flux quenching rate, Avg.: 12.796
WT 1:1 PC:PG 10 mM PA, delay 5 s
  Tl+ flux quenching rate, Avg.: 11.2973
WT 1:1 PC:PG 10 mM PA, delay 10 s
  Tl+ flux quenching rate, Avg.: 8.515
WT 1:1 PC:PG 10 mM PA, delay 25 s
  Tl+ flux quenching rate, Avg.: 1.356
WT 2:1:1 PC:PE:PG 10 mM PA, delay 0.01 s
  Tl+ flux quenching rate, Avg.: 108.066
WT 2:1:1 PC:PE:PG 10 mM PA, delay 0.025 s
  Tl+ flux quenching rate, Avg.: 129.134
WT 2:1:1 PC:PE:PG 10 mM PA, delay 0.05 s
  Tl+ flux quenching rate, Avg.: 140.06
WT 2:1:1 PC:PE:PG 10 mM PA, delay 0.1 s
  Tl+ flux quenching rate, Avg.: 141.696
WT 2:1:1 PC:PE:PG 10 mM PA, delay 0.25 s
  Tl+ flux quenching rate, Avg.: 158.52
WT 2:1:1 PC:PE:PG 10 mM PA, delay 0.5 s
  Tl+ flux quenching rate, Avg.: 169.325
WT 2:1:1 PC:PE:PG 10 mM PA, delay 1 s
  Tl+ flux quenching rate, Avg.: 150.743
WT 2:1:1 PC:PE:PG 10 mM PA, delay 2.5 s
  Tl+ flux quenching rate, Avg.: 114.107
WT 2:1:1 PC:PE:PG 10 mM PA, delay 5 s
  Tl+ flux quenching rate, Avg.: 89.8389
WT 2:1:1 PC:PE:PG 10 mM PA, delay 10 s
  Tl+ flux quenching rate, Avg.: 66.5759
WT 2:1:1 PC:PE:PG 10 mM PA, delay 25 s
  Tl+ flux quenching rate, Avg.: 19.0264
WT 3:1 PC:PE 10 mM PA, delay 0.01 s
  Tl+ flux quenching rate, Avg.: 13.3934
WT 3:1 PC:PE 10 mM PA, delay 0.025 s
  Tl+ flux quenching rate, Avg.: 16.8702
WT 3:1 PC:PE 10 mM PA, delay 0.05 s
  Tl+ flux quenching rate, Avg.: 17.8262
WT 3:1 PC:PE 10 mM PA, delay 0.1 s
  Tl+ flux quenching rate, Avg.: 25.5678
WT 3:1 PC:PE 10 mM PA, delay 0.25 s
  Tl+ flux quenching rate, Avg.: 25.5466
WT 3:1 PC:PE 10 mM PA, delay 0.5 s
  Tl+ flux quenching rate, Avg.: 29.8205
WT 3:1 PC:PE 10 mM PA, delay 1 s
  Tl+ flux quenching rate, Avg.: 23.2733
WT 3:1 PC:PE 10 mM PA, delay 2.5 s
  Tl+ flux quenching rate, Avg.: 17.3881
WT 3:1 PC:PE 10 mM PA, delay 5 s
  Tl+ flux quenching rate, Avg.: 8.6052
WT 3:1 PC:PE 10 mM PA, delay 10 s
  Tl+ flux quenching rate, Avg.: 3.015
WT 3:1 PC:PE 10 mM PA, delay 25 s
  Tl+ flux quenching rate, Avg.: 0.5341
WT 3:1 PC:PG 10 mM PA, delay 0.01 s
  Tl+ flux quenching rate, Avg.: 3.538
WT 3:1 PC:PG 10 mM PA, delay 0.025 s
  Tl+ flux quenching rate, Avg.: 5.637
WT 3:1 PC:PG 10 mM PA, delay 0.05 s
  Tl+ flux quenching rate, Avg.: 6.577
WT 3:1 PC:PG 10 mM PA, delay 0.1 s
  Tl+ flux quenching rate, Avg.: 5.156
WT 3:1 PC:PG 10 mM PA, delay 0.25 s
  Tl+ flux quenching rate, Avg.: 10.2935
WT 3:1 PC:PG 10 mM PA, delay 0.5 s
  Tl+ flux quenching rate, Avg.: 10.5897
WT 3:1 PC:PG 10 mM PA, delay 1 s
  Tl+ flux quenching rate, Avg.: 10.9346
WT 3:1 PC:PG 10 mM PA, delay 2.5 s
  Tl+ flux quenching rate, Avg.: 9.589
WT 3:1 PC:PG 10 mM PA, delay 5 s
  Tl+ flux quenching rate, Avg.: 8.149
WT 3:1 PC:PG 10 mM PA, delay 10 s
  Tl+ flux quenching rate, Avg.: 1.496
WT 3:1 PC:PG 10 mM PA, delay 25 s
  Tl+ flux quenching rate, Avg.: 1.028
WT PC 10 mM PA, delay 0.01 s
  Tl+ flux quenching rate, Avg.: 3.242
WT PC 10 mM PA, delay 0.025 s
  Tl+ flux quenching rate, Avg.: 7.793
WT PC 10 mM PA, delay 0.05 s
  Tl+ flux quenching rate, Avg.: 10.0904
WT PC 10 mM PA, delay 0.1 s
  Tl+ flux quenching rate, Avg.: 10.8806
WT PC 10 mM PA, delay 0.25 s
  Tl+ flux quenching rate, Avg.: 11.6946
WT PC 10 mM PA, delay 1 s
  Tl+ flux quenching rate, Avg.: 9.9293
WT PC 10 mM PA, delay 2.5 s
  Tl+ flux quenching rate, Avg.: 4.516
WT PC 10 mM PA, delay 5 s
  Tl+ flux quenching rate, Avg.: 0.8684
WT PC 10 mM PA, delay 10 s
  Tl+ flux quenching rate, Avg.: 0.09487
WT PC 10 mM PA, delay 25 s
  Tl+ flux quenching rate, Avg.: 0.1384
WT PC 10 mM PA, delay printed 0.05 (line r87, between 0.25 and 1)
  Tl+ flux quenching rate, Avg.: 13.718
0.3 mM PA, delay time 0
  Rate (stopped-flow fluorescence quenching rate): 0
0.3 mM PA, delay time 0.025
  Avg (stopped-flow fluorescence quenching rate): 0.05393
0.3 mM PA, delay time 0.05
  Avg (stopped-flow fluorescence quenching rate): 0.1144
0.3 mM PA, delay time 0.1
  Avg (stopped-flow fluorescence quenching rate): 0.02985
0.3 mM PA, delay time 0.1, listed as PA
  Rate (stopped-flow fluorescence quenching rate): 0.02819 and 0.02444 and 0.03693
0.3 mM PA, delay time 0.25
  Avg (stopped-flow fluorescence quenching rate): 0.2226
0.3 mM PA, delay time 0.5
  Avg (stopped-flow fluorescence quenching rate): 0.07829
0.3 mM PA, delay time 0.5, listed as PA
  Rate (stopped-flow fluorescence quenching rate): 0.05209 and 0.08034 and 0.1024
0.3 mM PA, delay time 1
  Avg (stopped-flow fluorescence quenching rate): 0.1269
0.3 mM PA, delay time 2.5
  Avg (stopped-flow fluorescence quenching rate): 0.07966
0.3 mM PA, delay time 5
  Avg (stopped-flow fluorescence quenching rate): 0.1012
0.3 mM PA, delay time 10
  Avg (stopped-flow fluorescence quenching rate): 0.07302
0.3 mM PA, delay time 25
  Avg (stopped-flow fluorescence quenching rate): 0.144
0.3 mM PA, delay time 25, listed as PA
  Rate (stopped-flow fluorescence quenching rate): 0.1101 and 0.1736 and 0.1484
1 mM PA, delay time 0
  Rate (stopped-flow fluorescence quenching rate): 0
1 mM PA, delay time 0.025
  Avg (stopped-flow fluorescence quenching rate): 0.05821
1 mM PA, delay time 0.05
  Avg (stopped-flow fluorescence quenching rate): 0.3418
1 mM PA, delay time 0.1
  Avg (stopped-flow fluorescence quenching rate): 0.7543
1 mM PA, delay time 0.25
  Avg (stopped-flow fluorescence quenching rate): 9.601
1 mM PA, delay time 0.5
  Avg (stopped-flow fluorescence quenching rate): 9.433
1 mM PA, delay time 1
  Avg (stopped-flow fluorescence quenching rate): 13.1765
1 mM PA, delay time 2.5
  Avg (stopped-flow fluorescence quenching rate): 13.927
1 mM PA, delay time 5
  Avg (stopped-flow fluorescence quenching rate): 16.0207
1 mM PA, delay time 10
  Avg (stopped-flow fluorescence quenching rate): 13.7137
1 mM PA, delay time 25
  Avg (stopped-flow fluorescence quenching rate): 8.387
3 mM PA, delay time 0
  Rate (stopped-flow fluorescence quenching rate): 0
3 mM PA, delay time 0.05
  Avg (stopped-flow fluorescence quenching rate): 279.785
3 mM PA, delay time 0.1
  Avg (stopped-flow fluorescence quenching rate): 279.666
3 mM PA, delay time 0.25
  Avg (stopped-flow fluorescence quenching rate): 300.719
3 mM PA, delay time 0.5
  Avg (stopped-flow fluorescence quenching rate): 352.59
3 mM PA, delay time 1
  Avg (stopped-flow fluorescence quenching rate): 284.973
3 mM PA, delay time 2.5
  Avg (stopped-flow fluorescence quenching rate): 176.344
